Reference: patent US7723370B2, “1, 2-diaryl pyrazoles useful as analgetic and antiinflammatory agents” (Richter Gedeon Vegyeszeti Gyar RT., priority 2005, dated 2010)

Columns and labels:
Format in all cases: in vivo, rat
[1] = tested on: carrageenan induced chronic hyperalgesia; assay: Carrageenan induced chronic hyperalgesia model in rats (Randall-Selitto)
[2] = tested on: carrageenan induced acute hyperalgesia; assay: Carrageenan induced acute hyperalgesia in rats (Randall-Selitto model)
Method: (§1) Oedema (inflammation) was induced by subcutaneous injection of carrageenan (CARR) suspension in the subplantar region of the right hind paw of male Wistar rats, weighted 140-190 g (n=8-12 animal/group). The nociceptive thresholds of the inflamed hind paw after painful mechanical stimuli were measured with analgesimeter (Ugo Basile, type: 37215, Italy). The apparatus is suitable for the measuring of the extent and the latency of the pain reaction threshold of the sensitized paw after painful stimuli. The analgesics elevate the low pain reaction threshold of inflamed paw and the degree of its antinociceptive effect is expressed in reversal %.
(§2) An increasing pressure was applied to the paw and the withdrawal threshold was determined as the first sign (squeaking and/or struggling) of pain response. The pressure threshold was shown in grams. The average value of the hind paw withdrawal obtained with untreated right paw was regarded as the basal hind paw withdrawal (average 80-110 grams.) After determining the baseline threshold the animals received carrageenan injection that produced an intense inflammation associated with hyperalgesia. The mechanical threshold was determined at various times to establish the magnitude and duration of the hyperalgesia. The maximum reduction in threshold was measured 2-3 h after injection (the pain threshold of the inflamed paw is 20-30 g, which was decreased by 65-80% in comparing to the basic value).
(§3) Acute hvneralgesia model: the animals were treated with the test compounds and celecoxib (10 and 30 mg/kg p.o.) one hour after CARR treatment (100 μl 2% suspension). Pain threshold was measured at 2 and 4 hours after the treatment. Chronic hyperalgesia model: extended inflammation and decreased pain threshold were induced with higher dose of CARR. Pain threshold of inflamed paw was measured 24 hours after CARR treatment (150 μl, 2% suspension) then test compound and Celecoxib (30 mg/kg p.o.) were given to the animals. Pain threshold of treated paw was measured from 30 minutes till 3 hours after treatment.
(§4) Control groups in both models after CARR treatment were treated with vehicle p.o. at the same intervals as the test compounds. In both models the analgesic effect of the compounds was expressed in the reversal (%) of the decrease of the pain threshold. Reversal %=[mean of treated groupTxh(g)−treated groupT0h(g)]/[basic mean of treated groupT-1h(g)−treated groupT0h(g)] • T−1 h=mean of the pain threshold of paw before CARR treatment in acute model (g) • T0h=mean of the pain threshold before treatment 1 hour after CARR treatment in acute model (g) • T×h=pain threshold after CARR treatment in the measuring times (1 h, 2 h, 3 h) in acute model (g)

[3] = tested on: alcohol induced mucosa injury; assay: Gastric lesions induced by acidified alcohol in rats; settings: 40 minutes before ethanol+HCl, n = 10
Method: Male Wistar rats weighing 140-160 g were treated p.o. with a 1:0.02 mixture of dry ethanol and concentrated HCl (0.5 ml) in order to induce gastric lesions. One hour later the animals were euthanized with ether and the stomach excised along its greater curvature, the mucosa was examined for the presence of lesions.
Severity of lesions: • 1: petechiae or erosion with length of 1 mm • 2: erosion with length between 2 and 3 mm • 3: erosion with length between 3 and 4 mm • 4: erosion with length between 4 and 5 mm
If the lesion was longer than 5 mm, it was scored 4 point as many times as the total length of the lesion divisible by four and the rest of the length was evaluated according to the above scale. The degree of injury of mucosa was characterized by ulcer index. Ulcer index (severity of lesion×number of lesion) was calculated for every animal and the degree of injury of mucosa in the groups of tested animals was characterized by the mean of ulcer index of different groups of animals.
Test compounds were given p.o. 40 minutes before the ethanol+HCl treatment

[4] = tested on: carrageenan induced chronic hyperalgesia; assay: Carrageenan induced chronic hyperalgesia model in rats (Randall-Selitto); settings: for Analgesic effect (reversal %) after p.o. treatment: chronic model, 30 mg/kg p.o.
Method: as §1, §2, §3, §4

[5] = tested on: acetic acid induced chronic gastric ulcer; assay: Acetic acid induced chronic gastric ulcer in rats
Method: In our experiments the method […] of Okabe et al was used. Male Wistar rats of 150-170 g were narcotize part of the stomach.
The test compound was given p.o. on the fifth day after the operation for seven days. The animals were euthanized with ether after 24 hours of the last dose and the abdomen was macroscopically examined (exravasation, accretion), the stomach was excised and the diameters of ulcers were measured.

[6] = tested on: carrageenan induced paw oedema; assay: Inhibition of carrageenan induced oedema in rats; settings: for ED30: p.o.
Method: The treated paw was immersed up to the tibio-tarsal articulation into the chamber and the volume of displaced liquid was determined as the degree of the inflammation. Degree of inflammation (ml)=volume after the CARR treatment (ml)−volume before the CARR treatment (ml)
The degree of the anti-inflammatory effect of the treated group (which obtained test agent) was compared to that of the control group (which obtained only vehicle). The test compound and the vehicle were given orally by blunt-ended needle cannula one hour before the CARR treatment. The volume of the treated paw was measured at 3 and 5 hours after the CARR treatment and the change in the degree of inflammation in % was calculated according to the following formula: Anti-inflammatory activity %=100×[control group (ml)−treated group (ml)/control group (ml)]
[…] Anti-inflammatory activity of the compounds was determined in % at 4 and 6 hours after p.o. treatment and ED30 was calculated.

[7] = tested on: myocardial ischemia-reperfusion induced injury; assay: Myocardial ischemia-reperfusion induced injury in rats (cardioprotective effect); settings: 30 mg/kg i.p. 30 minutes before occlusion; control group 90%
Method: Effect of compound of Example 5 and celecoxib was determined in experimental myocardial ischemia-reperfusion induced injury.
Myocardial infarction was produced in male, SPRD CFY rats of 300-360 g by surgical occlusion of left anterior descending coronary artery. Briefly, the animals were anesthetized with pentobarbital (60 mg/kg i.p.) and the chest was opened, the left coronary artery was ligated for 6 minutes followed by reperfusion. Test compounds were administered i.p. in 30 and 60 mg/kg dose 30 minutes before occlusion of the coronary artery. The control group was treated with vehicle (5% TWEEN 80 in isotonic NaCl, […]).

[8] = inflammation induced chronic hyperalgesia model

Cc1ccc(-c2cc(C(F)(F)F)nn2-c2ccc(S(=O)(=O)NOC(C)C(=O)O)cc2)cc1 (racemic) [Example 5, (R,S)-2-[4-(5-p-methylphenyl-3-trifluoromethyl-pyrazol-1-yl)-benzensulfonylamino-oxy]-propionic acid]
Analgesic effect (reversal %) after p.o. treatment ([1]; 10 mg/kg p.o., 30 min): 23%
Analgesic effect (reversal %) after p.o. treatment ([1]; 10 mg/kg p.o., 1 hour): 22%
Analgesic effect (reversal %) after p.o. treatment ([1]; 10 mg/kg p.o., 2 hour): 28%
Analgesic effect (reversal %) after p.o. treatment ([1]; 10 mg/kg p.o., 3 hour): 14%
Analgesic effect (reversal %) after p.o. treatment ([1]; 10 mg/kg p.o., 4 hour): 11%
Analgesic effect (reversal %) after p.o. treatment ([1]; 30 mg/kg p.o., 4 hour): 19%
Analgesic effect (reversal %) after p.o. treatment ([2]; 10 mg/kg p.o., 1 hour): 24%
Analgesic effect (reversal %) after p.o. treatment ([2]; 10 mg/kg p.o., 2 hour): 30%
Analgesic effect (reversal %) after p.o. treatment ([2]; 10 mg/kg p.o., 3 hour): 15%
Analgesic effect (reversal %) after p.o. treatment ([2]; 30 mg/kg p.o., 1 hour): 89%
Analgesic effect (reversal %) after p.o. treatment ([2]; 30 mg/kg p.o., 2 hour): 59%
Analgesic effect (reversal %) after p.o. treatment ([2]; 30 mg/kg p.o., 3 hour): 35%
Ulcer index ([3]; 15 mg/kg p.o.): 43.0 ± 4.4
Ulcer index ([3]; 30 mg/kg p.o.): 35.0 ± 4.4
Ulcer index ([3]; 60 mg/kg p.o.): 15.8 ± 2.8
Analgesic effect (reversal %) after p.o. treatment ([4]; 30 min): 42%
Analgesic effect (reversal %) after p.o. treatment ([4]; 1 hour): 54%
Analgesic effect (reversal %) after p.o. treatment ([4]; 2 hour): 34%
Analgesic effect (reversal %) after p.o. treatment ([4]; 3 hour): 19%
analgesic effect [4, 8]: significant analgesic effect (p<0.01)
duration of action compared with the reference compound [4, 8]: several hours longer
Area of ulcer (mm^2) ([5]; 30 mg/kg p.o. for seven days): 2.4 ± 0.7 mm^2
Change of bodyweight (g) + (increase) − (decrease) ([5]; 30 mg/kg p.o. for seven days): +43 ± 5 g
Recovery of acetic acid induced ulcer ([5]; p.o. for seven days): did not influence it
Inhibiton of carrageenan induced edema % ([6]; 3 mg/kg p.o., 4 hours after treatment): 21 ± 3%
Inhibiton of carrageenan induced edema % ([6]; 3 mg/kg p.o., 6 hours after treatment): 20 ± 3%
Inhibiton of carrageenan induced edema % ([6]; 10 mg/kg p.o., 4 hours after treatment): 40 ± 4%
Inhibiton of carrageenan induced edema % ([6]; 10 mg/kg p.o., 6 hours after treatment): 34 ± 5%
Inhibiton of carrageenan induced edema % ([6]; 30 mg/kg p.o., 4 hours after treatment): 49 ± 5%
Inhibiton of carrageenan induced edema % ([6]; 30 mg/kg p.o., 6 hours after treatment): 40 ± 4%
anti-inflammatory activity compared with celecoxib ([6]; CARR induced oedema test): significantly (p<0.05) higher
ED30 ([6]; 4 hours after treatment): 5.7 mg/kg
ED30 ([6]; 6 hours after treatment): 8.4 mg/kg
occurrence of serious, not mortal ventricular fibrillation during reperfusion [7]: 60%
